Measured values as given in patent publication US4708966A, “Novel anti-inflammatory agents, pharmaceutical compositions and methods for reducing inflammation” (The Procter & Gamble Company, priority 1986, dated 1987).

Legend:
[1] = tested on: osteoarthritis; assay: tablets in a patient suffering from osteoarthritis; type: in vivo; conditions: tablet, 200 mg Compound 11, twice daily
Method: (§1) Pharmaceutical Compositions in Tablet Form
(§2) Tablets are prepared by conventional methods, such as mixing and direct compaction, formulated as follows: […]

[2] = tested on: arachidonic acid-induced inflamed mouse ear; assay: Arachidonic Acid-Induced Inflamed Mouse Ear Test; type: in vivo, Adult male Cox ICR mice
Method: Arachidonic Acid-Induced Inflamed Mouse Ear Test
All drugs are dissolved with arachidonic acid in the vehicle. At the end of 3 hours, animals are sacrificed by cervical dislocation and both ears are removed. A 5 mm punch biopsy is removed from both ears and is weighed to the nearest 0.1 mg on a Cahn electrobalance. Ten animals are used per group. The study usually consists of 4 to 6 groups, of which one is a control group which is treated on the left ear with only arachidonic acid in the vehicle. The results are expressed as percent inhibition of the swelling response compared to the control group. Statistical tests for significance between groups are made using a one way analysis of variance of the ear weight differences. ID50 values are determined by regression analysis.

[3] = tested on: rheumatoid arthritis or osteoarthritis; assay: capsules in a patient afflicted with rheumatoid arthritis or osteoarthritis; type: in vivo; conditions: capsule, 200 mg Compound 11, oral, once a day
Method: Pharmaceutical Compositions in Capsule Form
Capsules are prepared by conventional methods, comprised as follows: […]

[4] = tested on: oxazolone-induced inflamed mouse ear; assay: Oxazolone-Induced Inflamed Mouse Ear Test (Ox-IMET); type: in vivo, Adult male Cox ICR mice; conditions: topical, 25 ul of 10% in ethanol, 24 h after challenge, vs control group, read-out: Percent Inhibition
Method: Oxazolone-Induced Inflamed Mouse Ear Test ("Ox-IMET")
Adult male Cox ICR mice, 25-35 g, are sensitized by applying 3% oxazolone in olive oil to the clipped abdomen of each animal using a cotton swab. One week later, the mice are challenged on the inner surface of the left ear with 3% oxazolone in aceotone. At the same time 25 ul of the test compound (10% in ethanol) is applied to the outer surface of the same ear. Twenty four hours after the challenge, the animals are sacrificed by cervical dislocation and both ears are removed. A 5 mm punch biopsy is removed from both ears and is weighed to the nearest 0.1 mg on a Cahn electrobalance. Ten animals are used per group. The study usually consists of 4 to 6 groups, of which one is a control group which is challenged on the left ear, but is not treated with a test compound. The results are expressed as percent inhibition of the swelling response compared to the control group. Statistical tests for significance between groups are made using a one way analysis of variance of the ear weight differences.

[5] = tested on: adjuvant arthritis (modified Freund's adjuvant); assay: Adjuvant Arthritis - Therapeutic; type: in vivo, Male Sprague-Dawley rats; conditions: for Body Weights % Increase / Bone Resorption % Inhibition / Paw Volume % Decrease: 2 x/day, days 20 through 28
Method: Adjuvant Arthritis Methodology
Male Sprague-Dawley rats weighing 167-170 gm are allowed to acclimate to the laboratory for at least 3 days. Ten rats are then assigned to the healthy control group and the remaining rats are assigned to the arthritic group. On day 0, the rats in the arthritic group are injected subcutaneously in the middle of their tail with a modified Freund's adjuvant (MFA) at a dosage of 0.05 ml/100 gm body weight. The MFA is made by grinding Mycobacterium butyricum (Mb) and then mixing with mineral oil at a concentration of 10 mg Mb/ml of mineral oil. This is mixed in an Omni mixer for 45 minutes.
Paw volumes and body weights are determined on days -1, 6, 13, 19, 26, and 29. On day 19, paw volume changes from day -1 are determined for the arthritic group. The rats with paw volume changes≥0.50 ml but ≤2.50 ml are randomized by paw volume changes into the treatment groups on day 20. […] On day 29, two representative rats from each treatment group are photographed, paw volumes and body weights are determined, and then the rats are sacrificed with CO2 and x-rays are taken.
The radiographs are used to grade bone resorption. Bone resorption is graded in 20 areas of the fore and hind paws. The areas for grading on the hind paw are: distal femur end, proximal tibia and tibula, distal end of the tibia and the small bone under the tibia, calcaneous, tarsus, and metatarsus. The areas on the fore paws are: radius, ulna, carpus, and metacarpus. Each area is given a grade of 0 (no resorption) or 1 (resorption) for possible grade of 20 of each animal.

[6] = antioxidant and free radical scavenging activity
[7] = tested on: inflammation; assay: anti-inflammatory activity in animal models of inflammation; type: in vivo
Method: In order to determine and assess pharmacological activity, testing of these compounds in animals is carried out using various assays known to those skilled in the art. […] Examples of such known tests include the carrageenan rat edema test, the oxazolone-induced inflamed mouse ear test, and the arachidonic acid-induced inflamed mouse ear test. Anti-pyretic acitivity may be tested using art-known rat models, and analgesic acitivty may be tested in art-known models such as the acetylcholine model in mice, the Randall-Selitto model in rats, and the hot-plate test in mice. Another useful art-known test is the adjuvant arthritis test which is a useful model for assessing anti-inflammatory activity and anti-resorptive activity in a chronic, rather than acute, model.
These and other appropriate tests for pharmacological activity are disclosed and/or referred to in U.S. Pat. No. 4,130,666, issued Dec. 19, 1978 to Moore; U.S. Pat. No. 4,440,784, issued Apr. 3, 1984 to Katsumi et al.; Japanese patent application No. 85/54315, published Mar. 28, 1985 by Katsumi et al.; European Patent Application Publication No. 59,090, published Sept. 1, 1982 by Yamanouchi Pharmaceutical Co., Ltd.; "Prostaglandin and Leukotriene Synthesis in Mouse Ears Inflamed by Arachidonic Acid", The Journal of Investigative Dermatology, 84, pp. 253-256 (1985); U.S. Pat. No. 4,431,656, issued Feb. […]

[8] = tested on: rheumatoid arthritis; assay: tablets in a patient suffering from rheumatoid arthritis; type: in vivo; conditions: tablet, 200 mg Compound 11, oral, two times daily
Method: as §1, §2

[9] = tested on: cyclooxygenase ("COX"); assay: inhibition of cyclooxygenase in arachidonic acid metabolism; type: biochemical
[10] = toxicity (acute oral toxicity); type: in vivo; conditions: test animals

SMILES: C#CCCCC(=O)c1cc(C(C)(C)C)c(O)c(C(C)(C)C)c1 [Compound 11, 4-(5'-hexynoyl)-2,6-di-t-butylphenol]
- benefit [1]: significant benefit
- inhibition in vivo at 50 µg/ear ([2]; Mus musculus, 50 ug/ear topical, 3 hours, read-out: Percent Inhibition at 50 ug/ear topical dose): 43.9%
- ID50 ([2]; topical, by regression analysis): 20.7 ug/ear
- reduction of symptomology [3]: substantially reduces the symptomology
- inhibition in vivo at 10 % [4]: 34.1%
- Body Weights % Increase ([5]; 5 mg/kg, oral): 36%
- Bone Resorption % Inhibition ([5]; 5 mg/kg, oral): 37%
- Paw Volume % Decrease ([5]; 5 mg/kg, oral): 75%
- Body Weights % Increase ([5]; 15 mg/kg, oral): 34%
- Bone Resorption % Inhibition ([5]; 15 mg/kg, oral): 50%
- Paw Volume % Decrease ([5]; 15 mg/kg, oral): 83%
- decrease of bone resorption in arthritic animal models ([5]; arthritic animal models): ability to decrease bone resorption
- oral anti-arthritic activity in a rat adjuvant arthritis model ([5]; oral, dosed therapeutically): anti-arthritic activity
- antioxidant and free radical scavenging activity [6]: antioxidant and free radical scavenging activity
- oral activity in several animal models of inflammation [7]: very good oral activity
- reduction of inflammation [8]: significantly reduces the inflammation
- inhibition of cyclooxygenase (COX) [9]: dual inhibitor
- acute oral toxicity [10]: very low acute oral toxicity
